Key:
dopaminergic D3 receptor = dopaminergic D3 receptor (Homo sapiens, UniProt P35462); assay: Cellular functional assay, dopaminergic D3 receptor (agonism/antagonism); format: cell-based; settings: for inhibition at 1 µM: CHO, read-out: D3-antag. [%]; for activation at 1 µM: agonist effect, percent of control specific agonist response (300 nM dopamine for control), 1×10^−6 M, D3 (h), CHO cells, read-out: D3-ag [%]
Description: (§1) The compounds were tested at the concentration of 1×10^−6M.
(§2) In the Tables ag refers to agonism, and antag to antagonism).

dopaminergic D2 receptor = dopaminergic D2 receptor (Homo sapiens, UniProt P14416); assay: Cellular functional assay, dopaminergic D2 receptor (agonism/antagonism); format: cell-based; settings: HEK293; for activation at 1 µM: agonist effect, percent of control specific agonist response (3 μM dopamine for control), 1×10^−6 M, D2S (h), HEK-293 cells, read-out: D2-ag [%]; for inhibition at 1 µM: read-out: D2-antag. [%]
Sequence of dopaminergic D2 receptor (P14416 whole entry): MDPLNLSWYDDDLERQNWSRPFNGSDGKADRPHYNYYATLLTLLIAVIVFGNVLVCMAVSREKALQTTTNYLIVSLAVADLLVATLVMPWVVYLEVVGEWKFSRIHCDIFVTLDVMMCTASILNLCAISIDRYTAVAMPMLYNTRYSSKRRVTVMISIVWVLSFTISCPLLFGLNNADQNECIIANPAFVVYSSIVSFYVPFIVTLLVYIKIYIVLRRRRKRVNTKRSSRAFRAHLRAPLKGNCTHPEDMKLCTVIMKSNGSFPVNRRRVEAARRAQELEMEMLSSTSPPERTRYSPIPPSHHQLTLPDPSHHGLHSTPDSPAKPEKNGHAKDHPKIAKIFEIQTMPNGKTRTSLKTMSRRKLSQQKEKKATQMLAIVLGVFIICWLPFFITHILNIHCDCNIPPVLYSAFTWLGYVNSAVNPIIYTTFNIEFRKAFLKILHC
Description: as §1, §2

[1] = biological target: serotoninergic 5-HT7 receptor (Homo sapiens, UniProt P34969); assay: Binding assay 5-HT7 (h), [3H]LSD, CHO cells; design: expressed in transfected cells; host or cells: CHO cells; settings: read-out: 5-HT7
Sequence of serotoninergic 5-HT7 receptor (P34969 whole entry): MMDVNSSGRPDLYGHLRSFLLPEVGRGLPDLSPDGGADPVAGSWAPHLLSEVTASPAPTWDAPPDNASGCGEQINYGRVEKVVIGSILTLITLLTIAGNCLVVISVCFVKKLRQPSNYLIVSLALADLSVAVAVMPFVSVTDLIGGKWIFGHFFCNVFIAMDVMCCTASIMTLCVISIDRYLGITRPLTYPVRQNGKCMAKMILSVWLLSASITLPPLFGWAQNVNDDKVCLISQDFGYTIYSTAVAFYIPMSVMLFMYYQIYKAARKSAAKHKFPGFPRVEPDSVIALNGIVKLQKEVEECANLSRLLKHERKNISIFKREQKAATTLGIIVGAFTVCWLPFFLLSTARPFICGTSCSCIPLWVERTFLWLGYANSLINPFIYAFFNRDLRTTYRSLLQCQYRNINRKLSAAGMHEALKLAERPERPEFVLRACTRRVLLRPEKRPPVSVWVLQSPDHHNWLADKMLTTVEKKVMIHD
Summary of the method: (§3)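 Binding read by scintillation counting. Non-specific component defined by excess unlabelled ligand and removed from total counts. Compounds at 1×10^−6 M.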

[2] = biological target: T1, histaminergic H1 receptor (Homo sapiens, UniProt P35367); assay: Binding assay H1 (h), [3H]pyrilamine, HEK-293 cells; design: expressed in transfected cells; host or cells: HEK-293 cells; settings: read-out: H1 [%]
T1 sequence (P35367 whole entry): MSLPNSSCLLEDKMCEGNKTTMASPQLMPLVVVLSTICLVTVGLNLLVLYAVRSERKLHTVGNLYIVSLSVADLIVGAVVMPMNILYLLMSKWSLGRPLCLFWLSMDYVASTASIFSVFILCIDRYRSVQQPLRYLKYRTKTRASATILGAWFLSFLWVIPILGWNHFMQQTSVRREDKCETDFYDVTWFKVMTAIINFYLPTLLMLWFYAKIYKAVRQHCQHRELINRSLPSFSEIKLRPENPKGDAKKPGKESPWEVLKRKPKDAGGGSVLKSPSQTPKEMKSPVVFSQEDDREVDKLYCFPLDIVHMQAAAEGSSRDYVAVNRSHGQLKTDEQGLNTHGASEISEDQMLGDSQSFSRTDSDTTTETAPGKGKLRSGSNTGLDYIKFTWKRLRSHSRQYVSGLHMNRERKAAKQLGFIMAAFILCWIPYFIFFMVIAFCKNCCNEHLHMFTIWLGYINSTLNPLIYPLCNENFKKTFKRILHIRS
Summary of the method: as §3

[3] = biological target: serotoninergic 5-HT6 receptor (Homo sapiens, UniProt P50406); assay: Cellular functional assay, serotoninergic 5-HT6 receptor (agonism/antagonism); format: cell-based; settings: for activation at 1 µM: agonist effect, percent of control specific agonist response, compounds tested at 1×10^−6M, read-out: 5-HT6-ag [%]; for inhibition at 1 µM: read-out: 5-HT6-antag. [%]
Sequence of serotoninergic 5-HT6 receptor (P50406 whole entry): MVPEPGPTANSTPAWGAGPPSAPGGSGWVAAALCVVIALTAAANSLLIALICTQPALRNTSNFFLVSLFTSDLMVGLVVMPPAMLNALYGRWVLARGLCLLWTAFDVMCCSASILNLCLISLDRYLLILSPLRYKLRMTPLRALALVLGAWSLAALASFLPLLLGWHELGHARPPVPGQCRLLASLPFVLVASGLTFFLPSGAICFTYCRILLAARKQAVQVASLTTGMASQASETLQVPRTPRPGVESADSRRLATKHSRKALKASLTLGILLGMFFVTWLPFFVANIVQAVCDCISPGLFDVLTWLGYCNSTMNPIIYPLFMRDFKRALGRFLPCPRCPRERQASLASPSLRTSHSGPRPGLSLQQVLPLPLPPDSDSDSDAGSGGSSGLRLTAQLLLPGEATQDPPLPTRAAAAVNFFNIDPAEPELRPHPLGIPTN
Description: as §1, §2

[4] = biological target: T2, serotoninergic receptor 5-HT2C (Homo sapiens, UniProt P28335); assay: Binding assay 5-HT2C (h), [3H]mesulergine, HEK-293 cells; settings: read-out: 5-HT2C [%]
T2 construct: expressed in transfected cells; host or cells: HEK-293 cells
T2 sequence (P28335 33-458): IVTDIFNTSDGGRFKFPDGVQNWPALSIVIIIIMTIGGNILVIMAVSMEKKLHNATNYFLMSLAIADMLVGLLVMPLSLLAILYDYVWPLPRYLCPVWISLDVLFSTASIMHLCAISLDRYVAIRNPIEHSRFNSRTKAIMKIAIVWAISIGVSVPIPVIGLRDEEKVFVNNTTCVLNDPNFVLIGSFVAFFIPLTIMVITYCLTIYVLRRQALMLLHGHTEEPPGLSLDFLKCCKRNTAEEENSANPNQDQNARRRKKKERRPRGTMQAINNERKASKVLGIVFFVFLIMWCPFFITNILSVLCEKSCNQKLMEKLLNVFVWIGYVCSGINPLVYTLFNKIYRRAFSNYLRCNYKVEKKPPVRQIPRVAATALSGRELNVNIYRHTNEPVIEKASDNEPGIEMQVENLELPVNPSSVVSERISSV
Summary of the method: as §3

[5] = biological target: serotoninergic 5-HT2A receptor (Homo sapiens, UniProt P28223); assay: Cellular functional assay, serotoninergic 5-HT2A receptor (agonism/antagonism); format: cell-based; settings: for activation at 1 µM: read-out: 5-HT2A -ag [%]; for inhibition at 1 µM: read-out: 5-HT2A -antag [%]
Sequence of serotoninergic 5-HT2A receptor (P28223 whole entry): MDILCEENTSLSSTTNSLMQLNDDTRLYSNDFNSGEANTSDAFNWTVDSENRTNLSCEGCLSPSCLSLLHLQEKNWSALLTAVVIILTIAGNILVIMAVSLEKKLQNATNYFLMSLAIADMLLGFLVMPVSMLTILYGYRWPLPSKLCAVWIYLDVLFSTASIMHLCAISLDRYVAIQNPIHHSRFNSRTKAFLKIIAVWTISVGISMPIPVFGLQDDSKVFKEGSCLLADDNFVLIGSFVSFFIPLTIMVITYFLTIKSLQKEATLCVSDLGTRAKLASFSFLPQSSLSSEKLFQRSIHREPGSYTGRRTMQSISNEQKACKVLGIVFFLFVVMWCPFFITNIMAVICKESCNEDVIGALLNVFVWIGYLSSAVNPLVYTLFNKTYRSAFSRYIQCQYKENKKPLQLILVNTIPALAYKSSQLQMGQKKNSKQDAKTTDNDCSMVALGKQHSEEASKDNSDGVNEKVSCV
Summary of the method: (§4)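 Human receptors tested in cell-based functional format for both agonist and antagonist modes. Single compound concentration of 1×10^−6M.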

[6] = biological target: T1, histaminergic H1 receptor; assay: Cellular functional assay, histaminergic H1 receptor (agonism/antagonism); format: cell-based; settings: for activation at 1 µM: agonist effect, percent of control specific agonist response, compounds tested at 1×10^−6M, read-out: H1 -ag [%]; for inhibition at 1 µM: read-out: H1 -antag. [%]
Description: as §1, §2

adrenergic α1A receptor = biological target: T3, adrenergic α1A receptor (Homo sapiens, UniProt P35348); assay: Cellular functional assay, adrenergic α1A receptor (agonism/antagonism); format: cell-based; settings: for activation at 1 µM: agonist effect, percent of control specific agonist response, compounds tested at 1×10^−6M, read-out: α1A -ag [%]; for inhibition at 1 µM: read-out: α1A -antag. [%]
T3 sequence (P35348 1-466): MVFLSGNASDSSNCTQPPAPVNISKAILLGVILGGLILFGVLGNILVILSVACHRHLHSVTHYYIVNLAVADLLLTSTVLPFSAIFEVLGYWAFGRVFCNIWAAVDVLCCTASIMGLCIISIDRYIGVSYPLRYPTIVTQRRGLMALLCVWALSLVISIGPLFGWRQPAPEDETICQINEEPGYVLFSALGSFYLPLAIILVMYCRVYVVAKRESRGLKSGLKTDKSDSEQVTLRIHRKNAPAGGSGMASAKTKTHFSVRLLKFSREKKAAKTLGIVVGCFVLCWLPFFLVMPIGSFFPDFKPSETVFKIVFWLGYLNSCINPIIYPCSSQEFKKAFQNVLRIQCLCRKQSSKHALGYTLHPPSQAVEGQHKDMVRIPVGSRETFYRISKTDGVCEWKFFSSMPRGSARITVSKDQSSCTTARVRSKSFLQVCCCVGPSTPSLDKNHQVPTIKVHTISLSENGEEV
Summary of the method: as §4

muscarinic M3 receptor = biological target: T4, muscarinic M3 receptor (Homo sapiens, UniProt P20309); assay: Binding assay M3 (h), [3H]4-DAMP, CHO cells; settings: read-out: M3 [%]
T4 construct: expressed in transfected cells; host or cells: CHO cells
T4 sequence (P20309 whole entry): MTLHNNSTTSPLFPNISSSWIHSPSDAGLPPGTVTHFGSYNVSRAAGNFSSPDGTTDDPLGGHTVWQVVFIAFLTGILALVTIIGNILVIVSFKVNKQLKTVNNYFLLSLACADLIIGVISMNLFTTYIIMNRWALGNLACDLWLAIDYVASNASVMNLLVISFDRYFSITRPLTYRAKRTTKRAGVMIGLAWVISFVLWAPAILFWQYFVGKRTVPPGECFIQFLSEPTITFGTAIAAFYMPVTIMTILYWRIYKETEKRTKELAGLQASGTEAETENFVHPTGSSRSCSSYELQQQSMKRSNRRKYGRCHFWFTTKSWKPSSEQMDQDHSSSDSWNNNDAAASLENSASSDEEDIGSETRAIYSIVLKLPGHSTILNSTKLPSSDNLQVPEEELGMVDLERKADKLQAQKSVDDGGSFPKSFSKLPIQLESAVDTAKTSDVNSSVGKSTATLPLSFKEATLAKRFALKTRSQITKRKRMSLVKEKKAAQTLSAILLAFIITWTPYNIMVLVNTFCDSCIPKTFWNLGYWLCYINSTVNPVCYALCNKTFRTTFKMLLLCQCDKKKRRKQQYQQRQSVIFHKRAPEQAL
Summary of the method: as §3

Sequence of dopaminergic D3 receptor (P35462 whole entry): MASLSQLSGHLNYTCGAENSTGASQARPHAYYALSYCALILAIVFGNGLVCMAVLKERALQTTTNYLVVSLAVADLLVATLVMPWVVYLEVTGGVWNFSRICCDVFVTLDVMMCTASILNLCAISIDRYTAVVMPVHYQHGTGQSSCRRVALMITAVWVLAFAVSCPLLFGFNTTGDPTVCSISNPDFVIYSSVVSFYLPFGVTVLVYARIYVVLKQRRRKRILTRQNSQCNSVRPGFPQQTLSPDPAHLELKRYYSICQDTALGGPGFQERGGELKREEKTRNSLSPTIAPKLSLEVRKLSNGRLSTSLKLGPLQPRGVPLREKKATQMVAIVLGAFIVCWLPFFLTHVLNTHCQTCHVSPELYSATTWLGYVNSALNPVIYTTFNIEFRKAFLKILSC

Structure (SMILES)	inhibition at 1 µM (dopaminergic D3 receptor) [%]	activation at 1 µM (dopaminergic D3 receptor) [%]	activation at 1 µM (dopaminergic D2 receptor) [%]	inhibition at 1 µM (dopaminergic D2 receptor) [%]	inhibition at 1 µM [1] [%]	inhibition at 1 µM [2] [%]	activation at 1 µM [3] [%]	inhibition at 1 µM [3] [%]	inhibition at 1 µM [4] [%]	activation at 1 µM [5] [%]	inhibition at 1 µM [5] [%]	activation at 1 µM [6] [%]	inhibition at 1 µM [6] [%]	activation at 1 µM (adrenergic α1A receptor) [%]	inhibition at 1 µM (adrenergic α1A receptor) [%]	inhibition at 1 µM (muscarinic M3 receptor) [%]
O=S(=O)(NCCCN1CCC(c2noc3cc(F)ccc23)CC1)c1ccc2cn[nH]c2c1 [Compound 352, N-[3-[4-(6-Fluoro-1,2-benzoxazol-3-yl)piperidin-1-yl]propyl]-1H-indazole-6-sulphonamide]	113	-18	12	88	100	97	-2	75	78	-1	100	1	60	1	100	12
O=S(=O)(NCCCN1CCC(c2noc3cc(F)ccc23)CC1)c1ccc2cc(Cl)ccc2c1 [Compound 98, 6-Chloro-N-[3-[4-(6-fluoro-1,2-benzoxazol-3-yl)piperidin-1-yl]propyl]naphthalene-2-sulphonamide]	109	-10	4	80	98	100	-2	79	91	-2	97	-1	78	0	99	16
O=S(=O)(NCCCCN1CCC(c2noc3cc(F)ccc23)CC1)c1cc2ccc(Cl)cc2s1 [Compound 314, 6-Chloro-N-[4-[4-(6-fluoro-1,2-benzoxazol-3-yl)piperidin-1-yl]butyl]benzothiophene-2-sulphonamide]	110	-30	9	86	99	93	0	91	85	-2	99	5	50	1	100	13
N#Cc1cccc(S(=O)(=O)NCCCN2CCC(c3noc4cc(F)ccc34)CC2)c1 [Compound 338, 3-cyano-N-[3-[4-(6-fluoro-1,2-benzoxazol-3-yl)piperidin-1-yl]propyl]benzenesulphonamide]	109	-10	3	88	98	95	0	88	76	-1	100	1	51	2	100	1
Cc1cccc(S(=O)(=O)NCCCN2CCN(c3nsc4ccccc34)CC2)c1 [Compound 7, N-(3-(4-(1,2-Benzothiazol-3-yl)piperazin-1-yl)propyl)-3-methylbenzenesulphonamide]	66	-21	0	91	97	93	1	65	89	0	100	1	70	0	100	13
O=c1[nH]c2ccc(S(=O)(=O)NCCCN3CCN(c4nsc5ccccc45)CC3)cc2o1 [Compound 8, N-(3-(4-(1,2-Benzothiazol-3-yl)piperazin-1-yl)propyl)-2-oxo-3H-1,3-benzoxazole-6-sulphonamide]	73	-24	7	85	97	97	-1	64	90	-2	99	1	98	0	100	-11
O=S(=O)(NCCCCN1CCC(c2noc3cc(F)ccc23)CC1)c1csc2ccccc12 [Compound 313, N-[4-[4-(6-Fluoro-1,2-benzoxazol-3-yl)piperidin-1-yl]butyl]benzothiophene-3-sulphonamide]	81	8	-5	85	100	90	-3	91	59	-3	98	4	47	0	100	25
O=S(=O)(NCCCCN1CCN(c2nsc3ccccc23)CC1)c1cc2ccccc2s1 [Compound 239, N-[4-[4-(1,2-Benzothiazol-3-yl)piperazin-1-yl]butyl]benzothiophene-2-sulphonamide]	84	6	13	84	98	98	0	70	88	-2	94	0	54	-1	100	9
O=S(=O)(NCCCCN1CCN(c2nsc3ccccc23)CC1)c1csc2ccccc12 [Compound 240, N-[4-[4-(1,2-Benzothiazol-3-yl)piperazin-1-yl]butyl]benzothiophene-3-sulphonamide]	72	8	3	83	97	92	-2	71	78	-3	93	0	69	0	100	15

Source: patent US8822517B2, “Arylosulfonamides for the treatment of CNS diseases” (Adamed SP. Z O.O., priority 2010, dated 2014)
